The target of this assay is T1, tPAD1 (Saccharomyces cerevisiae, UniProt P33751).
T1 sequence (P33751 55-242): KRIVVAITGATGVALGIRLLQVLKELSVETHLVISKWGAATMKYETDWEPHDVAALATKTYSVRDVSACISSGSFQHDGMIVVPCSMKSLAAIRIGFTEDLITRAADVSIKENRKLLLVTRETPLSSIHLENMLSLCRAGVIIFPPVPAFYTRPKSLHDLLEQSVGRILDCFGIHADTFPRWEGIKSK
As to the kind of experiment: UV-visible spectrum of purified protein. In kind it is binding. The note with it: co-purified from E. coli; oxidized FMN.

The values that follow come from paper PMC11756644 (ACS chemical biology, 2015).

With `Cc1cc2nc3c(=O)[nH]c(=O)nc-3n(C[C@H](O)[C@H](O)[C@H](O)COP(=O)(O)O)c2cc1C` [FMN], the “UV-visible spectrum of purified protein; LC-ESI-MS of released flavin” value is reported as “The presence of FMN was confirmed by LC-ESI-MS. FMN was released from tPAD1 by precipitation”.
